Target: IRE1α (Homo sapiens (Human), UniProt O75460, D688N)
Assay: IRE1α TR-FRET competition binding assay (IRE1α HTRF)
Conditions: TR-FRET competition binding to kinase domain of IRE1α
Outline: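 Competition of compounds against an Alexa fluor 647 ATP-site probe (2 nM final) for the His-tagged kinase domain (0.25 nM final), detected via 2 nM Eu anti-His antibody by TR-FRET, 665 and 615 nm emission. Protein–antibody premix 1 h, 4° C; reaction 1 h, room temperature, pH 7.5 HEPES buffer.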

IRE1α, sequence (O75460 547-977 D688N): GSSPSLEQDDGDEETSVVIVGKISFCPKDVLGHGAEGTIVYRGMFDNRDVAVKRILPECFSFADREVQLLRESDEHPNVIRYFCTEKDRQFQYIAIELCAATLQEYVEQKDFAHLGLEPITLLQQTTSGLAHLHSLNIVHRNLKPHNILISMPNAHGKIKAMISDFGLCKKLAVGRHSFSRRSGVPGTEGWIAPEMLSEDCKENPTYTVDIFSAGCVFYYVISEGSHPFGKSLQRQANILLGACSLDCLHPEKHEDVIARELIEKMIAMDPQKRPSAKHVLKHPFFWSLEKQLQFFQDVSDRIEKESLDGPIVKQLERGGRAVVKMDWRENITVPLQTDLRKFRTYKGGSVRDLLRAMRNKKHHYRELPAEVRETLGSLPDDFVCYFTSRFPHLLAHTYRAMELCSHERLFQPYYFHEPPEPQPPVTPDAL

Row | Compound | IC50 [nM]
1 | CC(C)n1c(=O)c(-c2ccc(NS(=O)(=O)CC3CCCC3)c(F)c2)nc2cnc(N[C@H]3CC[C@H](N(C)C)CC3)nc21 [Example 267, 1-Cyclopentyl-N-[4-[2-[[4-(dimethylamino)cyclohexyl]amino]-8-isopropyl-7-oxo-pteridin-6-yl]-2-fluoro-phenyl]methanesulfonamide] | 0.1
2 | CC(C)n1c(=O)c(-c2ccc(NS(=O)(=O)CC3Cc4ccccc4C3)c(F)c2)nc2cnc(N[C@H]3CC[C@H](N(C)C)CC3)nc21 [Example 268, N-[4-[2-[[4-(Dimethylamino)cyclohexyl]amino]-8-isopropyl-7-oxo-pteridin-6-yl]-2-fluoro-phenyl]-1-indan-2-yl-methanesulfonamide] | 0.1
3 | CC(C)n1c(=O)c(-c2ccc(NS(=O)(=O)CC3CCCCC3)c(F)c2)nc2cnc(N[C@H]3CC[C@H](N(C)C)CC3)nc21 [Example 269, 1-Cyclohexyl-N-[4-[2-[[4-(dimethylamino)cyclohexyl]amino]-8-isopropyl-7-oxo-pteridin-6-yl]-2-fluoro-phenyl]methanesulfonamide] | 0.2
4 | CC(C)n1c(=O)c(-c2ccc(NS(=O)(=O)CC34CCC(CC3)C4)c(F)c2)nc2cnc(N[C@H]3CC[C@H](N(C)C)CC3)nc21 [Example 270, N-[4-[2-[[4-(Dimethylamino)cyclohexyl]amino]-8-isopropyl-7-oxo-pteridin-6-yl]-2-fluoro-phenyl]-1-norbornan-1-yl-methanesulfonamide] | 0.3
5 | CC(C)n1c(=O)c(-c2ccc(NS(=O)(=O)CC3CCC(F)(F)CC3)c(F)c2)nc2cnc(N[C@H]3CC[C@H](N(C)C)CC3)nc21 [Example 271, 1-(4,4-Difluorocyclohexyl)-N-[4-[2-[[4-(dimethylamino)cyclohexyl]amino]-8-isopropyl-7-oxo-pteridin-6-yl]-2-fluoro-phenyl]methanesulfonamide] | 0.2
6 | CC(C)n1c(=O)c(-c2ccc(NS(=O)(=O)[C@@H]3C[C@H]3c3ccccc3)c(F)c2)nc2cnc(N[C@H]3CC[C@H](N(C)C)CC3)nc21 [Example 274, (1R,2S)—N-(4-(2-(((1r,4r)-4-(Dimethylamino)cyclohexyl)amino)-8-isopropyl-7-oxo-7,8-dihydropteridin-6-yl)-2-fluorophenyl)-2-phenylcyclopropane-1-sulfonamide] | 0.2
7 | CC(C)n1c(=O)c(-c2ccc(NS(=O)(=O)C3C4CCCCC43)c(F)c2)nc2cnc(N[C@H]3CC[C@H](N(C)C)CC3)nc21 (stereo partly drawn) [Example 275, N-[4-[2-[[4-(Dimethylamino)cyclohexyl]amino]-8-isopropyl-7-oxo-pteridin-6-yl]-2-fluoro-phenyl]norcarane-7-sulfonamide] | 0.4
8 | CC(C)n1c(=O)c(-c2ccc(NS(=O)(=O)C3CCC3)c(F)c2)nc2cnc(N[C@H]3CC[C@H](N(C)C)CC3)nc21 [Example 276, N-[4-[2-[[4-(Dimethylamino)cyclohexyl]amino]-8-isopropyl-7-oxo-pteridin-6-yl]-2-fluoro-phenyl]cyclobutanesulfonamide] | 0.9
9 | CC(C)n1c(=O)c(-c2ccc(NS(=O)(=O)C3CC4(CCC4)C3)c(F)c2)nc2cnc(N[C@H]3CC[C@H](N(C)C)CC3)nc21 [Example 277, N-[4-[2-[[4-(Dimethylamino)cyclohexyl]amino]-8-isopropyl-7-oxo-pteridin-6-yl]-2-fluoro-phenyl]spiro[3.3]heptane-2-sulfonamide] | 0.2
10 | CC(C)n1c(=O)c(-c2ccc(NS(=O)(=O)CC3CCC3)c(F)c2)nc2cnc(N[C@H]3CC[C@H](N(C)C)CC3)nc21 [Example 278, 1-Cyclobutyl-N-[4-[2-[[4-(dimethylamino)cyclohexyl]amino]-8-isopropyl-7-oxo-pteridin-6-yl]-2-fluoro-phenyl]methanesulfonamide] | 0.2
11 | CC(C)n1c(=O)c(-c2ccc(NS(=O)(=O)CC3CC(F)(F)C3)c(F)c2)nc2cnc(N[C@H]3CC[C@H](N(C)C)CC3)nc21 [Example 279, 1-(3,3-Difluorocyclobutyl)-N-[4-[2-[[4-(dimethylamino)cyclohexyl]amino]-8-isopropyl-7-oxo-pteridin-6-yl]-2-fluoro-phenyl]methanesulfonamide] | 0.3
12 | CC(C)n1c(=O)c(-c2ccc(NS(=O)(=O)C3CCC(F)(F)CC3)c(F)c2)nc2cnc(N[C@H]3CC[C@H](N(C)C)CC3)nc21 [Example 280, N-[4-[2-[[4-(Dimethylamino)cyclohexyl]amino]-8-isopropyl-7-oxo-pteridin-6-yl]-2-fluoro-phenyl]-4,4-difluoro-cyclohexanesulfonamide] | 0.2
13 | CC(C)n1c(=O)c(-c2ccc(NS(=O)(=O)C3CC4CCC3C4)c(F)c2)nc2cnc(N[C@H]3CC[C@H](N(C)C)CC3)nc21 (stereo partly drawn) [Example 281, N-(4-(2-(((1r, 4r)-4-(dimethylamino)cyclohexyl)amino)-8-isopropyl-7-oxo-7,8-dihydropteridin-6-yl)-2-fluorophenyl)bicyclo[2.2.1]heptane-2-sulfonamide] | 0.5
14 | N-(2,3,6-trifluoro-4-(8-isopropyl-2-((4-((2-methoxyethyl)(methyl)amino)cyclohexyl)amino)-7-oxo-7,8-dihydropyrido[2,3-d]pyrimidin-6-yl)phenyl)propane-1-sulfonamide [Compound 101A] | 0.35
15 | N-(2,3,6-trifluoro-4-(8-isopropyl-2-((4-((2-methoxyethyl)(methyl)amino)cyclohexyl)amino)-7-oxo-7,8-dihydropyrido[2,3-d]pyrimidin-6-yl)phenyl)propane-1-sulfonamide [Compound 101B] | 120

From patent US12344603B2 (Genentech, Inc., priority 2020, dated 2025)
